This is an account of results in US11241440B2, “Dihydrooxadiazine compounds for treating infections and cancer” (VALORALIA I MÁS D, SL, priority 2016, dated 2022).

One experiment deals with A. fumigatus. The settings on record: A. fumigatus AFu-001; cited from earlier work.
The subject of the next experiment is Aspergillus fumigatus. Kind of experiment: EUCAST broth dilution antifungal susceptibility test (MIC). The experiment is classed as cell-based. To be noted: 100% inhibition, 24 hours at 35° C., dilution range 64 to 0.12 mg/l. As to the method:
(§1) Filamentous fungi and yeasts strains, from clinical origin, were supplied by Microbiology Service from The Princess Hospital, Madrid. They are detailed in Table III. Filamentous fungi and yeast cells suspensions in distilled water was prepared from a culture of 24-48 h, depending on species, in Sabouraud agar. Each suspension was adjusted to a fixed size inoculum of 1-5×10^8 CFU/ml with a spectrophotometer (Ferraro, M J National Committee for Clinical Laboratory Standards. 2000). Antifungal susceptibility tests were developed following the standardized methodology detailed by the European Committee on Antimicrobial Susceptibility Testing (EUCAST) documents 7.2 (method for the determination of broth dilution minimum inhibitory concentrations of antifungal agents for yeasts EDef 7.2) and 9.2 (Method for the determination of broth dilution minimum inhibitory concentrations of antifungal agents for conidia forming foulds). The compound was dissolved in DMSO and diluted with RPMI plates with 2% glucose to pH 7 with MOPS buffer. […] Plates were inoculated with a yeast suspension or filamentous fungal spores (1-5×10^5 cls/ml). The results were evaluated after 24 hours incubation at 35° C. and absorbance reading at 530 nm.
In general terms: In broth dilution the organism is exposed to a series of concentrations in liquid medium.

A further experiment concerns Aspergillus flavus. Described as above. The experiment is classed as cell-based. To be noted: 100% inhibition, 24 hours at 35° C., dilution range 64 to 0.12 mg/l. As to the method: as §1
The next experiment concerns Scedosporium prolificans. The experiment is described as above. The experiment is classed as cell-based. The settings on record: 100% inhibition, 24 hours at 35° C., dilution range 64 to 0.12 mg/l. As to the method: as §1
Another experiment concerns Aspergillus terreus. The experiment is described as above. To be noted: 100% inhibition, 24 hours at 35° C., dilution range 64 to 0.12 mg/l. The experiment is classed as cell-based. As to the method: as §1
For the next experiment, the system named is A. terreus. To be noted: A. terreus ATe-001; cited from earlier work. Also: key: I = intermediate activity; S = susceptibility; R = Resistance.
Another experiment deals with A. flavus. To be noted: A. flavus AF-001; cited from earlier work.
A further experiment deals with C. parapsilosis. To be noted: C. parapsilosis CP-007; cited from earlier work.
Another experiment has as its system S. prolificans. The settings on record: S. prolificans SP-003; cited from earlier work. Also: key: I = intermediate activity; S = susceptibility; R = Resistance.

Molecules are shown by their SMILES.
For Characteristics of the strains: susceptibility class in this document: key: I = intermediate activity; S = susceptibility; R = Resistance.

For `C[C@@H]1[C@H](O)[C@@H](C)/C=C/C=C/C=C/C=C/C=C/C=C/C=C/[C@H](O[C@@H]2O[C@H](C)[C@@H](O)[C@H](N)[C@@H]2O)C[C@@H]2O[C@](O)(C[C@@H](O)C[C@@H](O)[C@H](O)CC[C@@H](O)C[C@@H](O)CC(=O)O[C@H]1C)C[C@H](O)[C@H]2C(=O)O` [Amphotericin B], the “Characteristics of the strains: susceptibility class” value in the experiment on A. fumigatus was “S”; in the experiment with A. terreus, “I”; in the experiment on A. flavus it was “I”; with C. parapsilosis, “I”; in the experiment with S. prolificans it was “R”. Also, the “MIC (minimum inhibitory concentration)” value against Aspergillus fumigatus is 0.5; in the experiment on Aspergillus flavus it was 1; with Scedosporium prolificans, greater than 16; against Aspergillus terreus, 2.

Take `C[C@@H](c1ncncc1F)[C@](O)(Cn1cncn1)c1ccc(F)cc1F` [Voriconazole]: the “MIC (minimum inhibitory concentration)” value against Aspergillus fumigatus was 0.5; against Aspergillus flavus, 1; in the experiment on Scedosporium prolificans it was greater than 8; in the experiment with Aspergillus terreus, 0.5. Moreover, the “Characteristics of the strains: susceptibility class” value in the experiment on S. prolificans is reported as “R”.
